Key:
[1] = target: T1, TG3a (Homo sapiens, UniProt Q08188); assay: Fluorescence isopeptidase activity assay (A101 FRET-quenched probe), isozyme selectivity; format: biochemical; details: normalized [I]/α
T1 construct: purchased Zedira
T1 sequence (Q08188 2-467 limits assumed): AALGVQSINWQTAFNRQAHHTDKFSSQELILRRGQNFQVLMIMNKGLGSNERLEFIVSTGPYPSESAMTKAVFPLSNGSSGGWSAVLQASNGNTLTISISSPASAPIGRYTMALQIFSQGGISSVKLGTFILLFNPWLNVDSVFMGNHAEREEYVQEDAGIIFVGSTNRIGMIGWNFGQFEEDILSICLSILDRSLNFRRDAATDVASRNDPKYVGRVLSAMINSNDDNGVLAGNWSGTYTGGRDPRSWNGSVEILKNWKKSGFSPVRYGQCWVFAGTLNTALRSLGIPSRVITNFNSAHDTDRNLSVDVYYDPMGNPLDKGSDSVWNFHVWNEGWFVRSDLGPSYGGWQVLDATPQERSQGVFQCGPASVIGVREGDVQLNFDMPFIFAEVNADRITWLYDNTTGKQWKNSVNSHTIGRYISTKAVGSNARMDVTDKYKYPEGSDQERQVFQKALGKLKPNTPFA
T1 sequence (Q08188 468-693 partner limits assumed): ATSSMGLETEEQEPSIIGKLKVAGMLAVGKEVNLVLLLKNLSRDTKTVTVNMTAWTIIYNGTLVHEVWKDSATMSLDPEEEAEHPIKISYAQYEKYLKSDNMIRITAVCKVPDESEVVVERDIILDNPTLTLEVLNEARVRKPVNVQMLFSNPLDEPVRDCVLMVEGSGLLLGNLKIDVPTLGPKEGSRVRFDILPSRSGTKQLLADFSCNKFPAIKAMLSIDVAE
Procedure: (§1) Fluorescence isopeptidase activity assay. The isopeptidase activity of pre-activated TG3a and FXIIIa (purchased from Zedira) was measured via a fluorescence-based assay as described (Kirily, R. et al., “Isopeptidase activity of human transglutaminase 2: disconnection from transamidation and characterization by kinetic parameters.” Amino Acids 2016, 48 (1), 31-40) using the commercially available peptidic FRET quenched probe A101. Briefly, the final concentration in the reaction mixture contained 50 mM Tris (pH 7.0), 10 mM CaCl2, 100 mM NaCl, 2.8 mM TCEP, 50 μM A101 and 14 mM H-Gly-OMe. The reaction was monitored at 25° C. using a BioTek Synergy 4 plate reader (Ex/Em: 318/413 nm). Enzymatic inhibition assays were run under Kitz and Wilson conditions (Kitz, R. and Wilson, I. B., “Esters of methanesulfonic acid as irreversible inhibitors of acetylcholinesterase.” J. Biol. Chem. 1962, 237, 3245-49), which were established for TG3a and FXIIIa at a substrate (A101) concentration of 50 μM using enzyme concentrations of 0.17 μM and 0.11 μM for TG3a and FXIIIa, respectively.

[2] = target: T2, FXIIIa (Homo sapiens, UniProt P00488); assay: as above; format: biochemical; details: normalized [I]/α
T2 construct: purchased Zedira
T2 sequence (P00488 39-732 limits assumed): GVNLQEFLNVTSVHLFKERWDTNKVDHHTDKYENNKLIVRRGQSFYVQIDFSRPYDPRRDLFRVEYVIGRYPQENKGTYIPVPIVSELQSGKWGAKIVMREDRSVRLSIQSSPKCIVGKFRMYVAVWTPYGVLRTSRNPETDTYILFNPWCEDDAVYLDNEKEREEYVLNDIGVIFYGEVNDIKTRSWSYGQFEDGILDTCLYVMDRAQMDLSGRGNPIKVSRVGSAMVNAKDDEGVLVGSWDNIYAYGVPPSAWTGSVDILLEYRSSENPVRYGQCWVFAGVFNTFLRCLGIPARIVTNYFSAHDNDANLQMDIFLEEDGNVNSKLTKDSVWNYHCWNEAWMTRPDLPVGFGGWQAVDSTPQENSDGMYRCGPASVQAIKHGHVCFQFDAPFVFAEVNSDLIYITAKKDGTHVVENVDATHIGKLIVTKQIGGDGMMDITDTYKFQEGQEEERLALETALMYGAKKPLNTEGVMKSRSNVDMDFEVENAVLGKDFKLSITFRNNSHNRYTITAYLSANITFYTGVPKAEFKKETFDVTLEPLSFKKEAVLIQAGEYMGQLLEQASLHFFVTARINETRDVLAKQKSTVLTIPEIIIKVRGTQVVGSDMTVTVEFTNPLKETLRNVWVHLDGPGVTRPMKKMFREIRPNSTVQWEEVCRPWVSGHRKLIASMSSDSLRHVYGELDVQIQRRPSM
Procedure: as §1

Row | Compound | inhibition of TG3a [1] | inhibition of FXIIIa [2]
1 | C=CC(=O)NCCCC[C@H](NC(=O)OCc1ccccc1)C(=O)N1CCN(C(=O)c2cccc3ccccc23)CC1 [AA9, reference compound] | none of these inhibitors showed any detectable inhibition | none of these inhibitors showed any detectable inhibition
2 | C=CC(=O)NCCCC[C@H](NC(=O)Cc1ccccc1C)C(=O)N1CCN(C(=O)c2cccc3ccccc23)CC1 [Inhibitor 74, (S)-N-(6-(4-(1-naphthoyl)piperazin-1-yl)-5-(2-(2-methylphenyl)acetamido)-6-oxohexyl)acrylamide] | none of these inhibitors showed any detectable inhibition | none of these inhibitors showed any detectable inhibition
3 | C=CC(=O)NCCCC[C@H](NC(=O)Cc1ccccc1F)C(=O)N1CCN(C(=O)c2cccc3ccccc23)CC1 [Inhibitor 72, (S)-N-(6-(4-(1-naphthoyl)piperazin-1-yl)-5-(2-(2-fluorophenyl)acetamido)-6-oxohexyl)acrylamide] | none of these inhibitors showed any detectable inhibition | none of these inhibitors showed any detectable inhibition

Source: patent US20240383869A1, “ARYLACETYL INHIBITORS OF TG2 AND USES THEREOF” (UNIVERSITY OF OTTAWA, priority 2021, published 2024)
